The text below walks through data of ChEMBL document CHEMBL1131633, “Design, synthesis, and biological activities of new thieno[3,2-d] pyrimidines as selective type 4 phosphodiesterase inhibitors” (J Med Chem, 1998).

The inhibition is the change of the read-out against control, counted positive when it falls. A lower inhibition goes with little suppression. By IC50 is commonly meant the concentration that inhibits the measured activity by half. Lower therefore signals greater potency. By EC50 is commonly meant the concentration giving half of the maximal effect. Read a high EC50 as a need for much substance.

Test [1] addresses Phosphodiesterase 4 (Rattus norvegicus) (UniProt P14270+P14646+P14644+P54748). Put plainly: Displacement of [3H]rolipram from Phosphodiesterase 4 in rat brain membranes at 10 uM. Format: cell membranes. (In general: Displacement assays read how much labelled ligand stays bound in the presence of the test substance.)
Test [2] deals with Phosphodiesterase 3 (Cavia porcellus). Kind of test: Inhibitory activity against cGMP inhibited Phosphodiesterase 3, isolated from guinea pig ventricular tissue.
The target of test [3] is Phosphodiesterase 4 (Cavia porcellus). Kind of test: Inhibitory activity against phosphodiesterase 4 isolated from guinea pig ventricular tissue.
Test [4] shares this target. Put plainly: Increased cAMP accumulation in isoprenaline-induced guinea pig eosinophils.

As for `c1ccc(CNc2nc(-c3ccccc3)nc3ccsc23)cc1`, the inhibition in test [1] amounted to 8%. The IC50 in test [2] is more than 200 µM; in test [3], 3 µM.
With `CCCc1nc2ccccc2n(Cc2ccccc2)c1=O`, the IC50 is more than 200 µM in test [2] and 0.9 µM in test [3].
Taken in the same sequence, the figures for `CCCc1nc2cccnc2n(Cc2ccccc2)c1=O` were more than 200 µM and 1 µM.
Consider `CCCCc1nc(NCc2ccc(-c3ccccc3)cc2)c2sccc2n1`, for which the half-maximal inhibitory concentration (IC50) in test [2] is 200 µM; in test [3], more than 200 µM.
Regarding `CCCCc1nc2ccccc2c(=O)n1Cc1ccccc1`, the IC50 in test [2] was more than 200 µM; in test [3] it was 16 µM.
Turning to `c1ccc(CNc2[nH]c(Cc3ccccc3)nc3ncnc2-3)cc1`, the half-inhibitory concentration (IC50) in test [2] was more than 200 µM; in test [3], 29 µM.
Taken in the same sequence, the figures for `CCCCc1nc(NCc2ccccc2)c2nccnc2n1` were 45 µM and 6.7 µM.
In test [1], `CCc1nc(NCc2ccccc2)c2sccc2n1` returned an inhibition of 41%. Moreover, the IC50 in test [2] was determined as 30 µM; in test [3], 2.3 µM.
With `CCCCc1nc(NCc2ccncc2)c2sccc2n1`, the figures for the IC50 in test [2] and in test [3] were 29 µM and 0.6 µM, respectively.
Taken in the same sequence, the figures for `CCCCc1nc2ccsc2c(=O)n1Cc1ccccc1` were 43 µM and 5 µM.
Consider `CCCCc1nc(N(CCC)Cc2ccccc2)c2sccc2n1`, for which the inhibition in test [1] amounted to 37%. In addition, the figures for the 50% inhibitory concentration (IC50) in test [2] and in test [3] were more than 200 µM and 2.5 µM, respectively.
`c1ccc(CNc2ncnc3ccsc23)cc1`: the IC50 in test [2] was found to be 68 µM; in test [3], 14 µM. In test [4], this compound returned an EC50 of 18 µM.
Compound `CCCCc1nc(N(Cc2ccccc2)Cc2ccccc2)c2sccc2n1` showed an inhibition in test [1] of 37%. In addition, the IC50 is more than 200 µM in test [2] and 4 µM in test [3].
For `c1ccc(CNc2nc(N3CCCCC3)nc3ccsc23)cc1`, the IC50 in test [2] was more than 200 µM; in test [3], 65 µM. The same compound came in with an EC50 in test [4] of 21 µM.
Take `c1ccc(CNc2nc(Cc3ccccc3)nc3ccsc23)cc1`: the results for the concentration for half-maximal inhibition (IC50) in test [2] and in test [3] were 5 µM and 1.5 µM, respectively.
Taken in the same sequence, the figures for `CCCCc1nc2ncccc2c(=O)n1Cc1ccccc1` were more than 200 µM and 10 µM.
With `CCCCc1nc(NC(=O)c2ccccc2)c2sccc2n1`, the IC50 in test [2] is more than 200 µM; in test [3], 23 µM.
As to `CCCCc1nc(NCc2ccc([N+](=O)[O-])cc2)c2sccc2n1`, the half-inhibitory concentration (IC50) in test [2] stood at 8.5 µM; in test [3] it was 6.3 µM.
